Columns and labels:
Amaranthus tuberculatus [1] = assay: Pre-emergence herbicidal evaluation, AMATA; assay type: in vivo; conditions: three weeks after treatment
Description: (§1) The treated pots are then placed on greenhouse benches, watered and cared for in accordance with conventional greenhouse procedures.

Alopecurus myosuroides [2] = assay: Pre-emergence herbicidal evaluation, ALOMY; assay type: in vivo; conditions: three weeks after treatment
Description: as §1

Apera spica venti [3] = assay: Pre-emergence herbicidal evaluation, APESV; assay type: in vivo; conditions: three weeks after treatment
Description: as §1

Echinochloa crus-galli [4] = assay: Pre-emergence herbicidal evaluation, ECHCG; assay type: in vivo; conditions: three weeks after treatment
Description: as §1

Setaria viridis [5] = assay: Pre-emergence herbicidal evaluation, SETVI; assay type: in vivo; conditions: three weeks after treatment
Description: as §1

Lolium perenne [6] = assay: Pre-emergence herbicidal evaluation, LOLPE; assay type: in vivo; conditions: three weeks after treatment
Description: as §1

Triticum aestivum [7] = assay: Pre-emergence herbicidal evaluation, TRZAW; assay type: in vivo; conditions: three weeks after treatment
Description: as §1

Hordeum vulgare [8] = assay: Pre-emergence herbicidal evaluation, HORVW; assay type: in vivo; conditions: three weeks after treatment
Description: as §1

Zea mays [9] = assay: Pre-emergence herbicidal evaluation, ZEAMX; assay type: in vivo; conditions: three weeks after treatment
Description: as §1

Glycine max [10] = assay: Pre-emergence herbicidal evaluation, GLXMA; assay type: in vivo; conditions: three weeks after treatment
Description: as §1

Oryza sativum [11] = assay: Pre-emergence herbicidal evaluation, ORYSA; assay type: in vivo; conditions: three weeks after treatment
Description: as §1

Amaranthus tuberculatus [12] = assay: Post-emergence herbicidal evaluation, AMATA; assay type: in vivo; conditions: three weeks after treatment
Galium aparine = assay: Post-emergence herbicidal evaluation, GALAP; conditions: three weeks after treatment
Description: (§2) The compounds of the invention are tested for pre- and post-emergence herbicidal activity.
(§3) Each pot is examined three weeks after treatment and phytotoxicity is assessed according to the rating system set forth below.
(§4) These acetone solutions are diluted with water and the resulting formulations applied at dosage levels equivalent of about 0.4 to 0.1 kg per hectare of test compound per pot. After spraying the plants are placed on greenhouse benches and are cared for in the usual manner, commensurate with conventional greenhouse practices.

Alopecurus myosuroides [13] = assay: Post-emergence herbicidal evaluation, ALOMY; conditions: three weeks after treatment
Apera spica venti [14] = assay: Post-emergence herbicidal evaluation, APESV; conditions: three weeks after treatment
Echinochloa crus-galli [15] = assay: Post-emergence herbicidal evaluation, ECHCG; conditions: three weeks after treatment
Setaria viridis [16] = assay: Post-emergence herbicidal evaluation, SETVI; conditions: three weeks after treatment
Description: as §2, §3, §4

Lolium perenne [17] = assay: Post-emergence herbicidal evaluation, LOLPE; conditions: three weeks after treatment
Triticum aestivum [18] = assay: Post-emergence herbicidal evaluation, TRZAW; conditions: three weeks after treatment
Description: as §3, §4

Hordeum vulgare [19] = assay: Post-emergence herbicidal evaluation, HORVW; conditions: three weeks after treatment
Zea mays [20] = assay: Post-emergence herbicidal evaluation, ZEAMX; conditions: three weeks after treatment
Description: as §3, §4

Glycine max [21] = assay: Post-emergence herbicidal evaluation, GLXMA; conditions: three weeks after treatment
Oryza sativum [22] = assay: Post-emergence herbicidal evaluation, ORYSA; conditions: three weeks after treatment
Description: as §2, §3, §4

CCN(C(=O)COc1nnc(C(F)(F)C(F)(F)F)s1)C1=CC(C)(C)CC(C)=C1 [Example 8]
55 °C: melting point
8 (8 - Approaching complete kill): phytotoxicity rating ALOMY (Alopecurus myosuroides [2]; 0.800 kg/ha) | phytotoxicity rating APESV (Apera spica venti [3]; 0.400 kg/ha) | phytotoxicity rating ECHCG (Echinochloa crus-galli [4]; 0.800 kg/ha) | phytotoxicity rating LOLPE (Lolium perenne [17]; 0.400 kg/ha)
1 (1 - Trace effect): phytotoxicity rating AMATA (Amaranthus tuberculatus [1]; 0.200 kg/ha) | phytotoxicity rating ALOMY (Alopecurus myosuroides [2]; 0.100 kg/ha) | phytotoxicity rating ECHCG (Echinochloa crus-galli [4]; 0.100 kg/ha) | phytotoxicity rating SETVI (Setaria viridis [5]; 0.100 kg/ha) | phytotoxicity rating LOLPE (Lolium perenne [6]; 0.100 kg/ha) | phytotoxicity rating HORVW (Hordeum vulgare [8]; 0.400 kg/ha) | phytotoxicity rating ORYSA (Oryza sativum [11]; 0.800 kg/ha) | phytotoxicity rating LOLPE (Lolium perenne [17]; 0.100 kg/ha) | phytotoxicity rating TRZAW (Triticum aestivum [18]; 0.400 kg/ha)
0 (0 - No effect): phytotoxicity rating AMATA (Amaranthus tuberculatus [1]; 0.100 kg/ha) | phytotoxicity rating APESV (Apera spica venti [3]; 0.100 kg/ha) | phytotoxicity rating APESV (Apera spica venti [3]; 0.200 kg/ha) | phytotoxicity rating TRZAW (Triticum aestivum [7]; 0.100 kg/ha) | phytotoxicity rating TRZAW (Triticum aestivum [7]; 0.200 kg/ha) | phytotoxicity rating TRZAW (Triticum aestivum [7]; 0.400 kg/ha) | phytotoxicity rating TRZAW (Triticum aestivum [7]; 0.800 kg/ha) | phytotoxicity rating HORVW (Hordeum vulgare [8]; 0.100 kg/ha) | phytotoxicity rating HORVW (Hordeum vulgare [8]; 0.200 kg/ha) | phytotoxicity rating ZEAMX (Zea mays [9]; 0.100 kg/ha) | phytotoxicity rating ZEAMX (Zea mays [9]; 0.200 kg/ha) | phytotoxicity rating ZEAMX (Zea mays [9]; 0.400 kg/ha) | phytotoxicity rating ZEAMX (Zea mays [9]; 0.800 kg/ha) | phytotoxicity rating GLXMA (Glycine max [10]; 0.100 kg/ha) | phytotoxicity rating GLXMA (Glycine max [10]; 0.200 kg/ha) | phytotoxicity rating GLXMA (Glycine max [10]; 0.400 kg/ha) | phytotoxicity rating GLXMA (Glycine max [10]; 0.800 kg/ha) | phytotoxicity rating ORYSA (Oryza sativum [11]; 0.100 kg/ha) | phytotoxicity rating ORYSA (Oryza sativum [11]; 0.200 kg/ha) | phytotoxicity rating ORYSA (Oryza sativum [11]; 0.400 kg/ha) | phytotoxicity rating AMATA (Amaranthus tuberculatus [12]; 0.100 kg/ha) | phytotoxicity rating AMATA (Amaranthus tuberculatus [12]; 0.200 kg/ha) | phytotoxicity rating AMATA (Amaranthus tuberculatus [12]; 0.400 kg/ha) | phytotoxicity rating GALAP (Galium aparine; 0.100 kg/ha) | phytotoxicity rating GALAP (Galium aparine; 0.200 kg/ha) | phytotoxicity rating ALOMY (Alopecurus myosuroides [13]; 0.100 kg/ha) | phytotoxicity rating APESV (Apera spica venti [14]; 0.100 kg/ha) | phytotoxicity rating ECHCG (Echinochloa crus-galli [15]; 0.100 kg/ha) | phytotoxicity rating ECHCG (Echinochloa crus-galli [15]; 0.200 kg/ha) | phytotoxicity rating ECHCG (Echinochloa crus-galli [15]; 0.400 kg/ha) | phytotoxicity rating SETVI (Setaria viridis [16]; 0.100 kg/ha) | phytotoxicity rating SETVI (Setaria viridis [16]; 0.200 kg/ha) | phytotoxicity rating SETVI (Setaria viridis [16]; 0.400 kg/ha) | phytotoxicity rating TRZAW (Triticum aestivum [18]; 0.100 kg/ha) | phytotoxicity rating TRZAW (Triticum aestivum [18]; 0.200 kg/ha) | phytotoxicity rating HORVW (Hordeum vulgare [19]; 0.100 kg/ha) | phytotoxicity rating HORVW (Hordeum vulgare [19]; 0.200 kg/ha) | phytotoxicity rating HORVW (Hordeum vulgare [19]; 0.400 kg/ha) | phytotoxicity rating ZEAMX (Zea mays [20]; 0.100 kg/ha) | phytotoxicity rating ZEAMX (Zea mays [20]; 0.200 kg/ha) | phytotoxicity rating ZEAMX (Zea mays [20]; 0.400 kg/ha) | phytotoxicity rating ORYSA (Oryza sativum [22]; 0.100 kg/ha) | phytotoxicity rating ORYSA (Oryza sativum [22]; 0.200 kg/ha)
7 (7 - Good herbicidal effect): phytotoxicity rating SETVI (Setaria viridis [5]; 0.800 kg/ha) | phytotoxicity rating LOLPE (Lolium perenne [17]; 0.200 kg/ha)
2 (2 - Slight effect): phytotoxicity rating HORVW (Hordeum vulgare [8]; 0.800 kg/ha) | phytotoxicity rating GLXMA (Glycine max [21]; 0.100 kg/ha) | phytotoxicity rating ORYSA (Oryza sativum [22]; 0.400 kg/ha)
5 (5 - Definite injury): phytotoxicity rating AMATA (Amaranthus tuberculatus [1]; 0.400 kg/ha) | phytotoxicity rating GALAP (Galium aparine; 0.400 kg/ha)
3 (3 - Moderate effect): phytotoxicity rating GLXMA (Glycine max [21]; 0.200 kg/ha)
9 (9 - Complete kill): phytotoxicity rating APESV (Apera spica venti [3]; 0.800 kg/ha)
6 (6 - Herbicidal effect): phytotoxicity rating AMATA (Amaranthus tuberculatus [1]; 0.800 kg/ha) | phytotoxicity rating ALOMY (Alopecurus myosuroides [2]; 0.400 kg/ha) | phytotoxicity rating LOLPE (Lolium perenne [6]; 0.400 kg/ha) | phytotoxicity rating LOLPE (Lolium perenne [6]; 0.800 kg/ha) | phytotoxicity rating APESV (Apera spica venti [14]; 0.400 kg/ha)
4 (4 - Injury): phytotoxicity rating ALOMY (Alopecurus myosuroides [2]; 0.200 kg/ha) | phytotoxicity rating ECHCG (Echinochloa crus-galli [4]; 0.200 kg/ha) | phytotoxicity rating ECHCG (Echinochloa crus-galli [4]; 0.400 kg/ha) | phytotoxicity rating SETVI (Setaria viridis [5]; 0.200 kg/ha) | phytotoxicity rating SETVI (Setaria viridis [5]; 0.400 kg/ha) | phytotoxicity rating LOLPE (Lolium perenne [6]; 0.200 kg/ha) | phytotoxicity rating ALOMY (Alopecurus myosuroides [13]; 0.200 kg/ha) | phytotoxicity rating ALOMY (Alopecurus myosuroides [13]; 0.400 kg/ha) | phytotoxicity rating APESV (Apera spica venti [14]; 0.200 kg/ha) | phytotoxicity rating GLXMA (Glycine max [21]; 0.400 kg/ha)

Source: US6339042B1, “Herbicidal N-cyclohexadienyl heteroaryloxyacetamides” (American Cyanamid Co., priority 1999, dated 2002)
